Results on 23 molecules are retold here after ChEMBL document CHEMBL1201862, “PubChem BioAssay data set” (2004).

Among the targets are Estrogen receptor beta (Homo sapiens, UniProt Q92731); Cytochrome P450 2C9 (Homo sapiens, UniProt P11712); Cytochrome P450 3A4 (Homo sapiens, UniProt P08684).
Series [1] concerns the target Eukaryotic translation initiation factor 4E (Mus musculus, UniProt P63073). Nature of the series: blockers of eIF4G binding by eIF4E – biochemical, TR-FRET, dose response (AID 855).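 Also: potency for disrupting eIF4E binding to eIF4GI seen as loss of FRET.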 The format is functional. (In general: TR-FRET usually uses a lanthanide donor and a delayed reading to cut background.)
The next series addresses Paired box protein Pax-8 (Homo sapiens, UniProt Q06710). The series is described as follows: PAX8 transcriptional activity inhibition in RMG-I – RMG-I cells, luciferase, cherry-pick, dose response (AID 687027).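 Also: luciferase reporter driven by Pax8 target thyroperoxidase promoter measured by SteadyGlo luminescence.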 It counts as functional, cell-based.
A short description of series [2]: OVCAR8 cell viability loss – plate reader, dry powder samples, PAX8 project, dose response (AID 743197). Particulars: OVCAR-8. The format is functional, cell-based.
Series [3] has as its target T1, Fatty acid synthase (Homo sapiens, UniProt P49327). The series is described as follows: inhibition of human FAS-TE enzyme activity – biochemical, endpoint fluorescence intensity, uHTS hits, dose response (AID 624327).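 Also: fluorescence from hydrolysis of an O-methyl fluorescein acyl ester substrate by the enzyme.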 It counts as functional.
Series [4] addresses T1, Fatty acid synthase. The series is described as follows: inhibition of human FAS-TE enzyme activity – biochemical, kinetic fluorescence intensity, dose response (AID 624326).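 Also: rate of fluorescence rise from hydrolysis of a fluorogenic O-methyl fluorescein ester substrate.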 It counts as functional.
The target of the next series is Cytochrome P450 2C19 (Homo sapiens, UniProt P33261). The series is described as follows: Cytochrome panel assay with activity outcomes. Panel member name: p450-cyp2c19 Compounds with AC50 equal or less than 10 uM are considered active. The format is functional. Particulars: read-out: AC50.
Chain of Cytochrome P450 2C19 (P33261 whole entry): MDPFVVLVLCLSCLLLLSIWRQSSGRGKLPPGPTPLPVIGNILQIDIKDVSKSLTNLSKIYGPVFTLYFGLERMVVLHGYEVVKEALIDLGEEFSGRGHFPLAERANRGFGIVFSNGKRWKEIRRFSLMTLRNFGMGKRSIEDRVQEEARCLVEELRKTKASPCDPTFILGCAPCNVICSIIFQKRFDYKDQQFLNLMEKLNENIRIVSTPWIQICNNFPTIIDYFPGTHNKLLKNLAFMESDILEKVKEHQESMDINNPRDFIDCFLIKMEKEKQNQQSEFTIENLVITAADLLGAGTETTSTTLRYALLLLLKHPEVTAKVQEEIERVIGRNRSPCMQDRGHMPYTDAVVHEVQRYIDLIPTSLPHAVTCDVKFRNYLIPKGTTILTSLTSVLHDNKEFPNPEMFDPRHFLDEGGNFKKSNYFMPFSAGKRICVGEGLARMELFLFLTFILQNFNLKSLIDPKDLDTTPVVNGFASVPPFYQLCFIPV
Another series has as its target T2, Cytochrome P450 1A2 (Homo sapiens, UniProt P05177).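 Also: PubChem cytochrome P450 panel assay, CYP1A2 panel member.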
T2 sequence (P05177 whole entry): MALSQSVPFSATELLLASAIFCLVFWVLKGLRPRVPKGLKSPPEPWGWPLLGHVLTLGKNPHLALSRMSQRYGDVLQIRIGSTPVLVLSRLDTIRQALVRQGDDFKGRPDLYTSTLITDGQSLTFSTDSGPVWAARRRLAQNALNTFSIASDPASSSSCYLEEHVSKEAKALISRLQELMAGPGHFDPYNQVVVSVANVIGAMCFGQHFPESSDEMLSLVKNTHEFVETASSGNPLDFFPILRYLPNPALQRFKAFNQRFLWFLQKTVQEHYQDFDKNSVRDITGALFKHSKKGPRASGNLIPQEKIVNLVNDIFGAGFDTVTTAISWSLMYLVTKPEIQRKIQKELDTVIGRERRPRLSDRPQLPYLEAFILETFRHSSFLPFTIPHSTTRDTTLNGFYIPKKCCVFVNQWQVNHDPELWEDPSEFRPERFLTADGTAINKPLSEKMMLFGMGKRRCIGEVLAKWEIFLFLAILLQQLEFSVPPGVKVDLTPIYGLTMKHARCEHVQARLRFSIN

The nature of series [5]: viability of PTEN-deleted HCT116 cells – cell-based, HCT116 PTEN knockout, dose response (AID 1047).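 Also: HCT116 colon tumor cells with PTEN knocked out; cells exposed to compound for 60 hours before readout; potency for loss of cell viability measured by luminescence.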 The format is functional.
The nature of series [6]: viability of HCT116 lacking mutant beta-catenin – cell-based, human colon tumor, dose response (AID 1045).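 Also: HCT116 colon tumor cells with beta catenin knocked out; cells exposed to compound for 60 hours.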 It counts as functional.
Series [7] has as its target Luciferin 4-monooxygenase (Photinus pyralis, UniProt P08659). The series is described as follows: inhibition of purified Photinus pyralis luciferase – biochemical, luminescence, dose response (AID 1891).
The nature of series [8]: Luminescence Cell-Based Dose Confirmation HTS to Identify Inhibitors of Platelet Dense Granule Release. [Related pubchem assays: 1663 (Primary HTS), 1678 (Summary of Project)]. The format is functional.
Series [9] can be described thus: Trypanosoma cruzi growth suppression in host cells – NIH3T3 host cells, beta-gal luminescence, confirmation (AID 2044).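 Also: intracellular parasites grown in NIH/3T3 mouse fibroblasts as host cells; luminescent beta-galactosidase reporter signal from transgenic T. cruzi replicating inside host cells; inhibitors lower the luminescence signal.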 It counts as functional, cell-based.
Series [10] is described as follows: NIH3T3 cell viability loss – ATP luminescence, mouse fibroblasts, counter-screen, dose response (AID 2010).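 Also: cells exposed to compound for about 90 hours before reading.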 It counts as functional, cell-based. Background: Counterscreens check selectivity or assay interference.
Series [11] concerns the target DNA dC->dU-editing enzyme APOBEC-3G (Homo sapiens, UniProt Q9HC16). Nature of the series: Dose Response confirmation of small molecule APOBEC3G DNA Deaminase Inhibitors via a fluorescence-based single-stranded DNA deaminase assay. [Related pubchem assays (depositor defined):AID493012, AID493028]. It counts as functional.
A further series can be described thus: cells. The format is functional.
The test system of the next series is H9c2. The series is described as follows: cells. It counts as functional, cell-based. As to conditions: Rattus norvegicus, H9c2, Myocardium.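 Also: confirmatory concentration-response retest of ultra-high-throughput screening hits for modulation of myocardial damage; cell death induced by hydrogen peroxide oxidative stress; compound pretreatment for 60 min then peroxide exposure for 2 h; potency is for protecting the cells against peroxide damage rather than for killing them.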

SMILES strings stand for the structures. Active and inactive are the calls of the source.

Chain of Estrogen receptor beta (Q92731 whole entry): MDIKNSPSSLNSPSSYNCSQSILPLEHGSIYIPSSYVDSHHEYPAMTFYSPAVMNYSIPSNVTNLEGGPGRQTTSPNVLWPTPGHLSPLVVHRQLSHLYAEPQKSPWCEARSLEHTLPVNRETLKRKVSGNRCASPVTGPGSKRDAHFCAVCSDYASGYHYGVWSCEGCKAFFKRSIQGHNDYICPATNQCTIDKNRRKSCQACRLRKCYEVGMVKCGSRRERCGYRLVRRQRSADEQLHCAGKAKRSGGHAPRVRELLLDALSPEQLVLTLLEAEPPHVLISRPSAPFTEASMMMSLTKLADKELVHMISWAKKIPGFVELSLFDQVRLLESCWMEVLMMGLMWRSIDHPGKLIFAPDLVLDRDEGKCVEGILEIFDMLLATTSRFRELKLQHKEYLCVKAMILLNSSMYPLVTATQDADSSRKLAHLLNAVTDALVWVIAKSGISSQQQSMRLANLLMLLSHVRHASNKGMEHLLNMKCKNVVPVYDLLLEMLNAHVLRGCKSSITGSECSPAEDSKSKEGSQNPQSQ
Chain of Paired box protein Pax-8 (Q06710 whole entry): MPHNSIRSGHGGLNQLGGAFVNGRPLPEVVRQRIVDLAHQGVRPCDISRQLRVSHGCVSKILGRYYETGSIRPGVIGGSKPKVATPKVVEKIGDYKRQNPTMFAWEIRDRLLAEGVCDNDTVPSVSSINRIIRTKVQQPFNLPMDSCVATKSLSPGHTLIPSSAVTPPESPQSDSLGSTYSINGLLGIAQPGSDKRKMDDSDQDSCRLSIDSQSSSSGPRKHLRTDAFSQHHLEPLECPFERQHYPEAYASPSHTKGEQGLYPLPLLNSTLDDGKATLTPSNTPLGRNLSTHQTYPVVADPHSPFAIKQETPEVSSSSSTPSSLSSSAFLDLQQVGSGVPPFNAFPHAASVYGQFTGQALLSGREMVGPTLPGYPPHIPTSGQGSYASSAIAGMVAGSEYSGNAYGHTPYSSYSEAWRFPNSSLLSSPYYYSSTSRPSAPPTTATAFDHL
T1 sequence (P49327 whole entry): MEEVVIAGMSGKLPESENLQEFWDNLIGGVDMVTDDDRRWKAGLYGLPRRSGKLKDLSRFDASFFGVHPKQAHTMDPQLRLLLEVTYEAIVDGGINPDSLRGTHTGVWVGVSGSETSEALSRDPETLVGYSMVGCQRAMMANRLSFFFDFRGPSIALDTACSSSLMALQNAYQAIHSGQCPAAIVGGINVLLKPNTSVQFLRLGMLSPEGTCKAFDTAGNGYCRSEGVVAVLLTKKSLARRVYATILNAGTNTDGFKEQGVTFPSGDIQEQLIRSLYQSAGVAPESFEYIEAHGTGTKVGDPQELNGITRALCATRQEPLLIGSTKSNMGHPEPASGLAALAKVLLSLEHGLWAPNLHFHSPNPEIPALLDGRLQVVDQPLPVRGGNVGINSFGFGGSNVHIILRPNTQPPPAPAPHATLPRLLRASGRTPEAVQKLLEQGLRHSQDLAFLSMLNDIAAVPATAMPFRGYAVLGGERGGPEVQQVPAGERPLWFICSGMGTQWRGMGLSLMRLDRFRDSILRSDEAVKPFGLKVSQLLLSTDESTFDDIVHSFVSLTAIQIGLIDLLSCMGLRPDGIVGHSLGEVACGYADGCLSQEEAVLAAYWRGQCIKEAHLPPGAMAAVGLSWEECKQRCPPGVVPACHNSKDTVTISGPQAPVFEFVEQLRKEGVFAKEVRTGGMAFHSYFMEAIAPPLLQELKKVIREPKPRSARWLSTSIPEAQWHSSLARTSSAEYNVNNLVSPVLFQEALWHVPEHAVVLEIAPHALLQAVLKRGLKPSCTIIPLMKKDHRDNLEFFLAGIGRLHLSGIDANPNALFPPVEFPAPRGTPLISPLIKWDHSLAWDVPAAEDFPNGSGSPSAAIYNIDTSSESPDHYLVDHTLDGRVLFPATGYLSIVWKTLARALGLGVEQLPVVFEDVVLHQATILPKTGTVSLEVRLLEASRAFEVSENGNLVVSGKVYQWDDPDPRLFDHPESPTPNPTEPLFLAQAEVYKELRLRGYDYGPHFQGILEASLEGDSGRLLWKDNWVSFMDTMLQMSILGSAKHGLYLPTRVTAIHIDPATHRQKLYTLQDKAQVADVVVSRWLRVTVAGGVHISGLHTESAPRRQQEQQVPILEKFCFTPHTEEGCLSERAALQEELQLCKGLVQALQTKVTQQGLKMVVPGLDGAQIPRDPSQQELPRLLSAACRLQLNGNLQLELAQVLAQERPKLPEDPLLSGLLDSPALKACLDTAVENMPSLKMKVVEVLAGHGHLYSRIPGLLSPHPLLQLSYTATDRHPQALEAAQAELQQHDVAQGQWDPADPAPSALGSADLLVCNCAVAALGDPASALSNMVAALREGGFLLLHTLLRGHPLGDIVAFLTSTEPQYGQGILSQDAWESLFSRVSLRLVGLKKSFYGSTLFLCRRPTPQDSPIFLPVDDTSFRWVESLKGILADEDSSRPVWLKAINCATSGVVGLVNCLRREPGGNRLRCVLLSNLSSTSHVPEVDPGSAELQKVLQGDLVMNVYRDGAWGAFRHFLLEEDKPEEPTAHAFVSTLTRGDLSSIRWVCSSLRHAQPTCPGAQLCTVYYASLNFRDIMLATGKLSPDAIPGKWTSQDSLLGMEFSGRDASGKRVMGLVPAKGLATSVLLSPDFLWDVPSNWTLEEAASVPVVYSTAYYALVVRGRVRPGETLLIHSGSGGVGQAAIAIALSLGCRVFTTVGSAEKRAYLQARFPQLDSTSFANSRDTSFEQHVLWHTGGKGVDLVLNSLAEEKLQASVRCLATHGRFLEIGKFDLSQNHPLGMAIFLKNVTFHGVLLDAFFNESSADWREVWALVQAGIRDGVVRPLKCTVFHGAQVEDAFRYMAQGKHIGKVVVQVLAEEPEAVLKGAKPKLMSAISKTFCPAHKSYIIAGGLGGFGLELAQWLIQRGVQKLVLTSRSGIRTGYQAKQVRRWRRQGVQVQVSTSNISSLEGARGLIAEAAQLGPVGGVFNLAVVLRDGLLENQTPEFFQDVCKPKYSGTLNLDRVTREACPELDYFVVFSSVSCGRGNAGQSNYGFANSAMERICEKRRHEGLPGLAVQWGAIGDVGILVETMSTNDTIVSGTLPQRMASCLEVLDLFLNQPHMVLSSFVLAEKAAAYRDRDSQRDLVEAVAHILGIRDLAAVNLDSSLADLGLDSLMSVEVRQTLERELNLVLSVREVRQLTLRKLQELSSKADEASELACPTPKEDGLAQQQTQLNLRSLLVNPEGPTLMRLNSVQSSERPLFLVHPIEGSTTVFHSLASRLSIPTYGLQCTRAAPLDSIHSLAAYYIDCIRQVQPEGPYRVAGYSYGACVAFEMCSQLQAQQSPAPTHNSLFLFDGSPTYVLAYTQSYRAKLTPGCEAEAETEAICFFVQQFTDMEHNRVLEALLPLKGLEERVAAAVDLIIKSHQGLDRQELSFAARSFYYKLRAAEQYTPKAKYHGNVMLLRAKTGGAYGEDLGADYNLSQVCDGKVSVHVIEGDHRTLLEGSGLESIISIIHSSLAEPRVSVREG
Chain of Cytochrome P450 3A4 (P08684 whole entry): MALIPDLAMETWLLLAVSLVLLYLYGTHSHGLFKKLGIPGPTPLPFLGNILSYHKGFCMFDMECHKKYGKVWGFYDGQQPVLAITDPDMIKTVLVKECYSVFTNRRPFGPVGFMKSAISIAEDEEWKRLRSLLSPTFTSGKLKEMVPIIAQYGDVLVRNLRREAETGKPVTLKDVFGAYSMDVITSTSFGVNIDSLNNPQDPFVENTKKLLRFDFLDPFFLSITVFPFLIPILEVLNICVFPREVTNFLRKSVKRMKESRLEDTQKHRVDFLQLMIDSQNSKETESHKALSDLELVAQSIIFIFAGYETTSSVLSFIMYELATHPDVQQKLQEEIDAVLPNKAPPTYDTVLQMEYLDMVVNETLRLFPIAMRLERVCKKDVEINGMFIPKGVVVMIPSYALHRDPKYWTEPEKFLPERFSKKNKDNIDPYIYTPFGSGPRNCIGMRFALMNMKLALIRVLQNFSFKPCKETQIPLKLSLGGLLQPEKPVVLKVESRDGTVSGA
Chain of Eukaryotic translation initiation factor 4E (P63073 whole entry): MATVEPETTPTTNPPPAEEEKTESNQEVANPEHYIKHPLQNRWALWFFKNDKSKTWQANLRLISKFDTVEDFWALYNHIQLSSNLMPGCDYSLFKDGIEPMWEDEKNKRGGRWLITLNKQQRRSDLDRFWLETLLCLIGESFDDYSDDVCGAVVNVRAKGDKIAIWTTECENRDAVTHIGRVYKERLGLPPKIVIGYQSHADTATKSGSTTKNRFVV

The IC50 is the concentration at which inhibition is half-maximal. In the case of `O=S1(=O)CC/C(=N/Nc2ccc(C(F)(F)F)cn2)c2cc(F)ccc21`, the IC50 in series [1] is 50 µM (inactive).

With `CCOc1ccccc1C(=O)N1CCN=C1SC`, at Estrogen receptor beta, the IC50 is given as > 50 µM (not active).

By AC50 is commonly meant the concentration giving half of the maximal activity seen. For `O=C(Nc1cccc(F)c1)N1CCCCN2[C@@H](CO)[C@@H](c3ccc(-c4ccncc4)cc3)[C@@H]2C1`, the AC50 is 32.2 µM (active) on Paired box protein Pax-8 and > 70 µM (inactive) in series [2].

In the case of `O=C(NCCCCc1ccccc1)C1CC(c2ccc([N+](=O)[O-])cc2)=NO1` (configuration not stated), the values for the IC50 at Fatty acid synthase [3] and on Fatty acid synthase [4] were 13.6 µM (active) and 14.1 µM (active), respectively.

In the case of `C[C@H](CO)N1C[C@H](C)[C@@H](CN(C)C(=O)NC2CCCCC2)Oc2c(NC(=O)Nc3ccc4c(c3)OCO4)cccc2C1=O`, the IC50 at Fatty acid synthase [3] was 1.66 µM (active); on Fatty acid synthase [4] it was 4.32 µM (active).

As for `CC(C)(C)c1ccc(C(=O)NC(Cc2ccccc2)C(=O)O)cc1` (configuration not stated), the AC50 on Cytochrome P450 2C19 is 22.4 µM (inconclusive); at Cytochrome P450 2C9 it was 25.1 µM (inconclusive); at Cytochrome P450 3A4, “inconclusive”.

For the molecule `Cc1ccc(C(=O)ON=C2CCN(S(=O)(=O)c3ccccc3)CC2)cc1`, the values for the half-maximal activity concentration (AC50) at Cytochrome P450 2C19, at Cytochrome P450 1A2 and on Cytochrome P450 3A4 were 5.01 µM (inconclusive), 28.2 µM (inconclusive) and “inconclusive”, respectively.

Broadly, the EC50 is the concentration needed to bring the measured effect to its halfway point. Regarding `Cc1oc(-c2ccc(Cl)cc2)nc1CN1CCC(C(=O)N2CCc3ccccc3C2)CC1`, the EC50 in [5] is 16.5 µM (active); in [6], 14.7 µM (active).

For the molecule `CCN1C2=C(C(=O)CCC2)C(c2ccc(O)c(Br)c2)C2=C1CCCC2=O`, on Estrogen receptor beta, the IC50 was > 50 µM (not active).

Regarding `COC(=O)C1(C(F)(F)F)N=C2Sc3ccccc3N2C(N2CCOCC2)=N1` (configuration not stated), the EC50 was > 112 µM (not active) in [7], > 112 µM (not active) in series [8], 23.9 µM (active) in series [5] and 21.7 µM (active) in [6].

As to `O=C(c1ccco1)N1CCC2(CCN(Cc3ccccc3)CC2)CC1`, the concentration at half-maximal activity (AC50) result on Cytochrome P450 3A4 is recorded as “inconclusive”.

Turning to `CCOc1ccc(Cl)cc1CNCCNCC(C)O.Cl` (configuration not stated), the AC50 entry on Cytochrome P450 3A4 is recorded as “inconclusive”.

As for `CN1c2ccc(-c3ccccc3)cc2[C@@H]2[C@@H](CCN2C(=O)NC2CCCCC2)[C@@H]1CO`, the AC50 on Paired box protein Pax-8 was 11.1 µM (active); in [2] it was 49.6 µM (active).

In the case of `O=C(Nc1nc(-c2cc(Cl)sc2Cl)cs1)c1ccc(Br)s1`, the EC50 in series [5] is 17.1 µM (active); in series [6], 20.2 µM (active).

With `CCCC#Cc1ccc([C@H]2[C@H]3CN(S(=O)(=O)Cc4ccccc4)CCCCN3[C@H]2CO)cc1`, the values for the AC50 (on Paired box protein Pax-8; in series [2]) were 10.9 µM (active) and 60.2 µM (active), respectively.

Take `CCOC(=O)CNC(=O)C(Cc1ccccc1)NS(=O)(=O)c1ccc2c(c1)CCC(=O)N2` (configuration not stated): the IC50 against Estrogen receptor beta is recorded as > 50 µM (not active).

`COc1ccccc1NS(=O)(=O)c1cc(NC(=O)C2CCC2)ccc1N1CCCCC1`: the EC50 is 2.44 µM (active) in series [9] and > 30 µM (not active) in [10]. Besides, the IC50 in [11] is 46.8 µM (active).

With `COCCNC(=O)CCCn1c(=O)c2ccccc2n(Cc2cccc([N+](=O)[O-])c2)c1=O`, the values for the IC50 on Fatty acid synthase [3] and at Fatty acid synthase [4] were 11.6 µM (active) and 15.8 µM (active), respectively.

In the case of `O=C(O)CC(O)C(=O)O` (configuration not stated) [MALIC ACID], the AC50 entry on Cytochrome P450 3A4 is on record as “inconclusive”.

`O=C(COC(=O)c1ccc([N+](=O)[O-])s1)Nc1ccc(Cl)cn1`: the figures for the IC50 in “cells” and in the series with H9c2 were 8.49 µM (active) and 22.2 µM (active), respectively.

`C=CCn1c(-c2cc(OC)c(OC)c(OC)c2)n[nH]c1=S`: the IC50 in series [1] is > 64 µM (inactive).

For the molecule `O=C(c1ccco1)N1CCC2(CCN(Cc3nccs3)CC2)CC1`, the AC50 result on Cytochrome P450 3A4 is reported as “inconclusive”.

In the case of `O=C(O)CCCNc1c(C(=O)Nc2ccc(Cl)cc2)cc([N+](=O)[O-])cc1[N+](=O)[O-]`, the half-maximal inhibitory concentration (IC50) at Fatty acid synthase [3] was 5.31 µM (active); at Fatty acid synthase [4], 4.79 µM (active).
